# Paper PMC9190144, “Phytochemistry, anti-diabetic and antioxidant potentials of Allium consanguineum Kunth” (BMC Complementary Medicine and Therapies, 2022)
# Where “and” joins values, the source holds several entries; their conditions need not be identical. Identical values can stand only once.
# Legend:
# [1] = system: α-amylase; test: In-vitro α-amylase inhibition assay; type: biochemical; conditions: for Percent Inhibition (mean ± SEM): crude extract/solvent fractions series; for Alpha amylase Percent Inhibition (mean ± SEM): semi-purified fractions/isolated compounds series
# Protocol: The Bernfeld’s procedure was used to investigate in-vitro amylase inhibition. […] Ten minutes after incubation period, […] of 1% starch solution were applied to initiate the reaction and then incubated for 30 minutes at 37 °C. Then 20 μl of 1 M HCl and 75 μl of iodine solution were added to the 96 well plate, the absorbance of the solution was measured at 580 nm and inhibitory response of the -amylase enzyme was calculated using the following formula. Inhibition%=100control-test/control
# (§1) The IC50s were determined using the same approach in free radical assays such as DPPH, ABTS, and H2O2.
# [2] = target: α-glucosidase (Saccharomyces cerevisiae, UniProt P53341); type: biochemical
# Protocol: For the example planning initial 1200 μL of phosphate buffer put in test tube and included 100 μl of each concentrate which sequential weakened going from 9, 7, and 5 mg/ml. 200 μl of glycosidase (0.5 mg/11 ml refined H2O) was added to the test tube in addition to 0.2 ml of substrate arrangement (glucopyranoside 15 mg/10 ml refined water) was kept at 37 °C for 20 minutes.
# For control, 1.2 ml of PO4 (phosphate buffer) was added to the test tube and furthermore included 200 μl catalyst arrangement and 200 μl of substrate arrangement (C7H14O6 (glucopyranoside) 15 mg/10 ml refined water) just as included 800 μl of Na2CO3 arrangement and was maintained for 20 minutes at 37 °C [32]. The retention of control and test was examined at 4.05e-7 m using the accompanying equation after the recommended time: %Inhibition=absorbanceofControl-absorbanceofSample/absorbanceofControl×100
# as §1
# [3] = ABTS free radicals scavenging assay; type: biochemical
# Protocol: The ABTS analysis of plant’s samples was performed by standard systems. […] After amassing of the two solutions, they were saved in a hatchery at 30 °C for 15 m. The absorbance of the subsequent solution was estimated at 745 nm with photo-spectrometer again. Various weakening of ascorbic corrosive was then set up as certain controls as per a similar technique. The ABTS free extreme screening was examined by the accompanying recipe. Formula: %scavengingactivity=A-B/AX100 A used for the control while B represents sample absorbance.
# [4] = DPPH antioxidant assay; type: biochemical; conditions: for DPPH Percent Scavenging / Percent Inhibition (mean ± SEM): semi-purified fractions/isolated compounds series
# Protocol: For DPPH stock arrangement, […] dissolve in 100 ml of methanol and maintain at 20 °C for supplementary action. After this, 1000 micro litter was the standard absorbance set at 517 nm as utilized a control and afterward spread through aluminum foil for keeping in dark area for 1 day for the formation of radicals. […] The 2 ml solution of the examples were blended in with 2 ml of 2, 2-[…]-1-picryl-hydrazyl radical arrangement and saved for 15 m in obscurity zone. Following equation was utilized for the assurance of % DPPH restraint. %inhibition=A-B/A×100
# A for absorbance of control and B are denoted for the absorbance of sample.
# as §1
# [5] = H2O2 free radicals scavenging assay; type: biochemical
# Protocol: The hydrogen peroxide antioxidant activity of test samples was evaluated by using protocol described. […] It was […] 0.6 mL hydrogen peroxide solution was applied to it. The absorbance of each plant sample was measured at 230 nm against the blank after 10 minutes. […] Hydrogenperoxidescavengingactivity=1-[…]×100 […]
# [6] = system: albino mice; test: Oral glucose tolerance test (OGTT); type: in vivo; conditions: for OGTT 0 minutes / OGTT 30 minutes / OGTT 60 minutes / OGTT 120 minutes: oral; for OGTT 0 minutes: 0 minutes after glucose; for OGTT 30 minutes: 30 minutes after glucose; for OGTT 60 minutes: 60 minutes after glucose; for OGTT 120 minutes: 120 minutes after glucose
# Protocol: In this experiment, the animals treated with control and treated groups were fasted overnight. To the albino mice, […] of glucose was administered against the standard glibenclamide. After the oral administration of glucose, the level of glucose in blood was checked at time intervals of 0, 30, 60 and 120 minutes for assessment of the effect of exogenously administered glucose-D on the treated albino mice. After the experiment, the OGTT was carried out for 5 days.
# [7] = system: alloxan-induced diabetic albino mice; test: In-vivo anti-diabetic study in alloxan-induced diabetic mice; conditions: for Decrease in Blood Glucose: 0 day to 15th day
# Protocol: The diabetes was induced in mice by giving alloxan i.p. as per the standard protocols. A single dose of alloxan (150 mg/kg) was given to mice and were kept on fasting for next 16 hours to induce diabetes. […] The animals with random blood glucose level of more than 200 mg/dl were selected for further studies. The animals with elevated blood glucose levels were divided into six groups having five albino mice in each group. Group I was given normal saline and was negative control. Group II was given Tween 80. Group III was the positive control and was given glibenclamide. The remaining groups were given different doses of the compounds. […]
# [8] = dose 31.25 μg/kg, diabetic mice
# [9] = dose 0.5 (μg/kg), diabetic mice
# α-glucosidase, sequence (P53341 whole entry): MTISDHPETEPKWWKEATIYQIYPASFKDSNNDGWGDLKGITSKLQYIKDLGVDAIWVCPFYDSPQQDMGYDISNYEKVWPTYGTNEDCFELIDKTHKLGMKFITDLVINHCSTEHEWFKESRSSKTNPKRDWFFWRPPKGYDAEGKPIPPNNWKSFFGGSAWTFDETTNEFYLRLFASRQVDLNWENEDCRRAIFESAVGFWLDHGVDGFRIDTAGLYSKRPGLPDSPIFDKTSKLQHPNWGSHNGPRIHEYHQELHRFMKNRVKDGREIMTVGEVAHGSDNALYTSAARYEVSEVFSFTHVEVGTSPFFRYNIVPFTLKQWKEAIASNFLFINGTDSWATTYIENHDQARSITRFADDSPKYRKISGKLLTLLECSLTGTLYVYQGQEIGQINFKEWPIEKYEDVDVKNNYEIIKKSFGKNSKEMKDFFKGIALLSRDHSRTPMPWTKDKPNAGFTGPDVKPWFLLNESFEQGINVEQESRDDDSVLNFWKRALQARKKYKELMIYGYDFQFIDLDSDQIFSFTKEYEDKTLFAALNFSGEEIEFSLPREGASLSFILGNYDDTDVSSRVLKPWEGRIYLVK
Structure (SMILES),Alpha amylase Percent Inhibition (mean ± SEM) ([1]; 250 μg/ml),Alpha amylase Percent Inhibition (mean ± SEM) ([1]; 500 μg/ml),Alpha amylase Percent Inhibition (mean ± SEM) ([1]; 1000 μg/ml),DPPH Percent Scavenging / Percent Inhibition (mean ± SEM) ([4]; 250 μg/ml),DPPH Percent Scavenging / Percent Inhibition (mean ± SEM) ([4]; 500 μg/ml),DPPH Percent Scavenging / Percent Inhibition (mean ± SEM) ([4]; 1000 μg/ml),OGTT 0 minutes [6],OGTT 30 minutes [6],OGTT 60 minutes [6],OGTT 120 minutes [6],Decrease in Blood Glucose ([7]; dose 31.25 μg/kg),"Blood Glucose Level 0 day [7, 8]","Blood Glucose Level 4th day [7, 8]","Blood Glucose Level 7th day [7, 8]","Blood Glucose Level 10th day [7, 8]","Blood Glucose Level 15th day [7, 8]",Decrease in Blood Glucose ([7]; dose 250 μg/kg),"Blood Glucose Level 0 day ([7]; dose 250 μg/kg, diabetic mice)","Blood Glucose Level 4th day ([7]; dose 250 μg/kg, diabetic mice)","Blood Glucose Level 7th day ([7]; dose 250 μg/kg, diabetic mice)",further results
C[C@H]1O[C@H](O[C@H]2[C@H](O)[C@@H](O)[C@@H](O[C@H]3[C@H](O)[C@@H](O)C(O)O[C@@H]3CO)O[C@@H]2CO)[C@H](O)[C@@H](O)[C@@H]1N[C@H]1C=C(CO)[C@@H](O)[C@H](O)[C@H]1O (stereo partly shown) [Acarbose],77.08 ± 1.04%,82.28 ± 1.94%,87.49 ± 0.60%,–,–,–,–,–,–,–,–,–,–,–,–,–,–,–,–,–,Percent Inhibition (mean ± SEM) ([1]; 250 μg/ml): 70.08 ± 1.04%; Percent Inhibition (mean ± SEM) ([1]; 500 μg/ml): 76.28 ± 1.94%; Percent Inhibition (mean ± SEM) ([1]; 1000 μg/ml): 87.49 ± 0.60%; Alpha glucosidase Percent Inhibition (mean ± SEM) [2]: 89.50 ± 1.00% and 83.00 ± 0.00% and 77.50 ± 0.57% and 73.53 ± 0.55% and 67.63 ± 0.33%; Percent Inhibition (mean ± SEM) [2]: 75.50 ± 1.00% and 70.00 ± 0.00% and 64.50 ± 0.57% and 56.53 ± 0.55% and 51.63 ± 0.33%
O=C1O[C@H]([C@@H](O)CO)C(O)=C1O [Ascorbic acid],–,–,–,83.33 ± 0.88%,87.84 ± 0.26%,92.55 ± 0.35%,–,–,–,–,–,–,–,–,–,–,–,–,–,–,"ABTS assay IC50 [3]: < 0.1 µg/mL; ABTS assay Percent Inhibition (mean ± SEM) ([3]; 250 μg/ml): 81.00 ± 1.06%; ABTS assay Percent Inhibition (mean ± SEM) ([3]; 500 μg/ml): 86.66 ± 0.66%; ABTS assay Percent Inhibition (mean ± SEM) ([3]; 1000 μg/ml): 87.83 ± 0.29%; DPPH assay Percent Inhibition (mean ± SEM) ([4]; 250 μg/ml, crude extract/solvent fractions series): 81.33 ± 0.88%; DPPH assay Percent Inhibition (mean ± SEM) ([4]; 500 μg/ml, crude extract/solvent fractions series): 87.84 ± 0.26%; DPPH assay Percent Inhibition (mean ± SEM) ([4]; 1000 μg/ml, crude extract/solvent fractions series): 92.55 ± 0.35%; DPPH assay IC50 ([4]; crude extract/solvent fractions series): < 0.1 µg/mL; H2O2 assay IC50 [5]: 12.63 µg/mL; H2O2 assay Percent Inhibition (mean ± SEM) ([5]; 250 μg/ml): 71.56 ± 0.49%; H2O2 assay Percent Inhibition (mean ± SEM) ([5]; 500 μg/ml): 74.03 ± 0.64%; H2O2 assay Percent Inhibition (mean ± SEM) ([5]; 1000 μg/ml): 82.43 ± 0.52%"
"COc1cc(/C=C/CO)ccc1O [Comp 1, (E)-4-(3-hydroxyprop-1-en-1-yl)-2-methoxyphenol]",74.90 ± 0.60^ns %,79.45 ± 0.90^ns %,85.23 ± 0.22^ns %,80.48 ± 0.25 %,85.43 ± 1.39 %,89.24 ± 0.79 %,165.6 mg/dL,194.6 mg/dL,211.4 mg/dL,160.1 mg/dL,36 mg/dL,415 mg/dL,407 mg/dL,398 mg/dL,381 mg/dL,379 mg/dL,205 mg/dL,420 mg/dL,394 mg/dL,345 mg/dL,"blood glucose ([6]; after 120 minutes): 160 mg/dL; Blood Glucose Level 10th day ([7]; dose 250 μg/kg, diabetic mice): 217 mg/dL; Blood Glucose Level 15th day ([7]; dose 250 μg/kg, diabetic mice): 215 mg/dL; Decrease in Blood Glucose ([7]; dose 500 μg/kg): 119 mg/dL; Blood Glucose Level 0 day ([7]; dose 500 μg/kg, diabetic mice): 411 mg/dL; Blood Glucose Level 4th day ([7]; dose 500 μg/kg, diabetic mice): 387 mg/dL; Blood Glucose Level 7th day ([7]; dose 500 μg/kg, diabetic mice): 371 mg/dL; Blood Glucose Level 10th day ([7]; dose 500 μg/kg, diabetic mice): 311 mg/dL; Blood Glucose Level 15th day ([7]; dose 500 μg/kg, diabetic mice): 292 mg/dL"
"C=CCc1cc2c(c(OC)c1OC)OCO2 [Comp 2, 6-allyl-4,5-dimethoxybenzo[d][1,3]dioxole]",68.33 ± 0.49 %,74.33 ± 1.20 %,81.61 ± 1.70 %,78.36 ± 0.84 %,82.35 ± 0.23 %,87.62 ± 0.58 %,163.5 mg/dL,189.4 mg/dL,214.6 mg/dL,151.6 mg/dL,33 mg/dL,451 mg/dL,447 mg/dL,430 mg/dL,424 mg/dL,418 mg/dL,112 mg/dL,467 mg/dL,462 mg/dL,444 mg/dL,"Change in body weight [7, 8]: −6.6 gm; Blood Glucose Level 10th day ([7]; dose 250 μg/kg, diabetic mice): 408 mg/dL; Blood Glucose Level 15th day ([7]; dose 250 μg/kg, diabetic mice): 355 mg/dL; Decrease in Blood Glucose ([7]; dose 500 μg/kg): 201 mg/dL; Blood Glucose Level 0 day ([7]; dose 500 μg/kg, diabetic mice): 457 mg/dL; Blood Glucose Level 4th day ([7]; dose 500 μg/kg, diabetic mice): 403 mg/dL; Blood Glucose Level 7th day ([7]; dose 500 μg/kg, diabetic mice): 362 mg/dL; Blood Glucose Level 10th day ([7]; dose 500 μg/kg, diabetic mice): 304 mg/dL; Blood Glucose Level 15th day ([7]; dose 500 μg/kg, diabetic mice): 256 mg/dL"
"COc1ccc(Cl)cc1C(=O)NCCc1ccc(S(=O)(=O)NC(=O)NC2CCCCC2)cc1 [Glibenclamide, reference compound]",–,–,–,–,–,–,151.3 mg/dL,176.5 mg/dL,214.1 mg/dL,140.7 mg/dL,–,–,–,–,–,–,–,–,–,–,"Decrease in Blood Glucose ([7]; dose 0.5 (μg/kg)): 274 mg/dL; Blood Glucose Level 0 day [7, 9]: 472 mg/dL; Blood Glucose Level 4th day [7, 9]: 302 mg/dL; Blood Glucose Level 7th day [7, 9]: 256 mg/dL; Blood Glucose Level 10th day [7, 9]: 211 mg/dL; Blood Glucose Level 15th day [7, 9]: 198 mg/dL"
